What was measured:
Versuchstiere = experiment: Prolonged administration to test animals (blood, urine); assay type: in vivo
Excerpt: Nur zu einer späteren Beobachtungsperiode (4 bis 9 Tage) wurde eine unbedeutende Erhöhung der Gesamtleukozytenzahl nachgewiesen. Am 3. Tag trat auch eine geringe Aktivierung der Blutcholinesterase auf, in den nachfolgenden Beobachtungstagen (4 bis 9 Tage) überstieg jedoch die Aktivität des Ferments das Ausgangsniveau nicht.
Die morpholigischen Untersuchungen der inneren Organe der Versuchstiere legten keine pathologischen Veränderungen im Vergleich zur Kontrolle an den Tag.

[1] = Acute toxicity, single administration, rats; details: rat, in vivo, Ratten, read-out: LD50 (mg/kg) und deren zuverlässige Grenzen P = 0,05
[2] = Acute toxicity, single administration, mice; details: mouse, in vivo, Mäuse, read-out: LD50 (mg/kg) und deren zuverlässige Grenzen P = 0,05
Excerpt: Die Toxizität des erfindungsgemässen Arzneimittels bei der einmaligen Einführung (die akute Toxizität) wurde an geschlechtsreifen Tieren (an Mäusen, Ratten, Katzen, Hunden) bestimmt. Die Analyse der experimentellen Angaben für Mäuse und Ratten wurde nach der Methode der Probit-Analyse nach Litchfield und Wilcoxon, und für Hunde und Katzen nach der Methode der Anreicherung der Frequenz nach Behrens durchgeführt.
Die Toxizitätsparameter LD50 wurden für Mause bei der intraperitonealen und subkutanen Einführung, für Ratten bei der subkutanen, intramuskulären und enteralen Einführung, für Katzen bei der intramuskulären Einführung und für Hunde bei der subkutanen Einführung bestimmt.

[3] = tested on: Gehirn der Tiere (Ratten); experiment: Morphological and histochemical examination of the brain; assay type: in vivo; details: Dosen 5, 20 und 50 mg/kg; no haemorrhages
Protocol: Der Grad deren Ausgeprägtheit wird etwas höher und länger in den Gehirnstrukturen (3 Tage) bei einer Dosis des erfindungsgemässen Arzneimittels von 50 mg/kg aufrechterhalten, als bei Dosen von 5 und 20 mg/kg. Die Kapillarhyperämie wird durch keine Blutergüsse und Störungen des argyrophilen Gestells der Hirnblutgefässe begleitet. Die morphologische und histochemische Untersuchung des Rattengehirns, denen das erfindungsgemässe Arzneimittel in Dosen von 5, 20 und 50 mg/kg eingeführt wurde, gestattet, die erhaltenen Veränderungen als funktionelle einzuschätzen (die Schwankung der Aktivität der Azetylcholinesterase und der Butyrylcholinesterase, die […] Hyperämie), die von einer deutlichen Neurotropie des Arzneimittels zeugen.

## C=CC[n+]1ccccc1C=NO [das erfindungsgemässe Arzneimittel, N-Allyl-2-pyridinaldoxiinbromid]
Versuchstiere; dauernde Anwendung, slight rise of leukocytes at 4 bis 9 Tage
  Einfluss auf den Bestand des peripheren Bluts: keinen merklichen Einfluss
Versuchstiere; längere Einführung
  Harnbestand: veränderte nicht den Harnbestand
[1]; ip, intraperitoneal
  LD50: 135 mg/kg
[1]; po, enteral
  LD50: 260 mg/kg
[1]; sc, subkutan
  LD50: 200 mg/kg
[2]; ip, intraperitoneal
  LD50: 64 mg/kg
[2]; sc, subkutan
  LD50: 115 mg/kg
[3]
  Histochemische Untersuchungen des Gehirns: allgemeine unbedeutende Kapillarhyperämie
